Data from ChEMBL document CHEMBL3797052 (Eur J Med Chem, 2016).

Tested on: not listed separately
Assay: Cytotoxicity against human HCT116 cells assessed as growth inhibition at 100 uM after 2 days by MTT assay
Assay type: functional
Details: HCT-116, 48 h, read-out: GI
For `CNC(=O)c1cc(Oc2ccc3nc(NC(=O)Nc4ccc(F)cc4F)sc3c2)ccn1`, the inhibition of growth at 100 µM was 86.3%.

Tested on: not listed separately
Assay: Cytotoxicity against human HCT116 cells assessed as growth inhibition at 10 uM after 2 days by MTT assay
Assay type: functional
Details: HCT-116, 48 h, read-out: GI
`CNC(=O)c1cc(Oc2ccc3nc(NC(=O)Nc4ccc(F)cc4F)sc3c2)ccn1` gave an inhibition of growth at 10 µM of 56.9%.

Tested on: not listed separately
Assay: Cytotoxicity against human SKBR3 cells assessed as growth inhibition at 100 uM after 2 days by MTT assay
Assay type: functional
Details: SK-BR-3, 48 h, read-out: GI
`CNC(=O)c1cc(Oc2ccc3nc(NC(=O)Nc4ccc(F)cc4F)sc3c2)ccn1` showed an inhibition of growth at 100 µM of 79.5%.

Tested on: not listed separately
Assay: Cytotoxicity against human SKBR3 cells assessed as growth inhibition at 10 uM after 2 days by MTT assay
Assay type: functional
Details: SK-BR-3, 48 h, read-out: GI
In the case of `CNC(=O)c1cc(Oc2ccc3nc(NC(=O)Nc4ccc(F)cc4F)sc3c2)ccn1`, the inhibition of growth at 10 µM is reported as 61.6%.

Tested on: not listed separately
Assay: Antiproliferative activity against human MOLT4 cells assessed as cell growth at 10^-5 M after 48 hrs by sulforhodamine B assay
Assay type: functional
Details: MOLT-4, 48 h, read-out: Activity
With `CNC(=O)c1cc(Oc2ccc3nc(NC(=O)Nc4ccc(F)cc4F)sc3c2)ccn1` the growth at 10 µM was 82.4%.

Tested on: not listed separately
Assay: Antiproliferative activity against human RPMI8226 cells assessed as cell growth at 10^-5 M after 48 hrs by sulforhodamine B assay
Assay type: functional
Details: RPMI-8226, 48 h, read-out: Activity
`CNC(=O)c1cc(Oc2ccc3nc(NC(=O)Nc4ccc(F)cc4F)sc3c2)ccn1` showed a growth at 10 µM of 72.9%.

Tested on: A549
Assay: Antiproliferative activity against human A549/ATCC cells assessed as cell growth at 10^-5 M after 48 hrs by sulforhodamine B assay
Assay type: functional
Details: A549, 48 h, read-out: Activity
With `CNC(=O)c1cc(Oc2ccc3nc(NC(=O)Nc4ccc(F)cc4F)sc3c2)ccn1` the growth at 10 µM was 44.8%.

Tested on: not listed separately
Assay: Antiproliferative activity against human HOP62 cells assessed as cell growth at 10^-5 M after 48 hrs by sulforhodamine B assay
Assay type: functional
Details: HOP-62, 48 h, read-out: Activity
For `CNC(=O)c1cc(Oc2ccc3nc(NC(=O)Nc4ccc(F)cc4F)sc3c2)ccn1`, the growth at 10 µM was 60.7%.

Tested on: not listed separately
Assay: Antiproliferative activity against human HOP92 cells assessed as cell growth at 10^-5 M after 48 hrs by sulforhodamine B assay
Assay type: functional
Details: HOP-92, 48 h, read-out: Activity
Compound `CNC(=O)c1cc(Oc2ccc3nc(NC(=O)Nc4ccc(F)cc4F)sc3c2)ccn1` has a growth at 10 µM of -13.7%.

Tested on: NCI-H226
Assay: Antiproliferative activity against human NCI-H226 cells assessed as cell growth at 10^-5 M after 48 hrs by sulforhodamine B assay
Assay type: functional
Details: NCI-H226, 48 h, read-out: Activity
In the case of `CNC(=O)c1cc(Oc2ccc3nc(NC(=O)Nc4ccc(F)cc4F)sc3c2)ccn1`, the growth at 10 µM is reported as 52.8%.

Tested on: NCI-H460
Assay: Antiproliferative activity against human NCI-H460 cells assessed as cell growth at 10^-5 M after 48 hrs by sulforhodamine B assay
Assay type: functional
Details: NCI-H460, 48 h, read-out: Activity
In the case of `CNC(=O)c1cc(Oc2ccc3nc(NC(=O)Nc4ccc(F)cc4F)sc3c2)ccn1`, the growth at 10 µM is reported as 63%.

Tested on: NCI-H522
Assay: Antiproliferative activity against human NCI-H522 cells assessed as cell growth at 10^-5 M after 48 hrs by sulforhodamine B assay
Assay type: functional
Details: NCI-H522, 48 h, read-out: Activity
Compound `CNC(=O)c1cc(Oc2ccc3nc(NC(=O)Nc4ccc(F)cc4F)sc3c2)ccn1` has a growth at 10 µM of 68.7%.

Tested on: not listed separately
Assay: Antiproliferative activity against human COLO205 cells assessed as cell growth at 10^-5 M after 48 hrs by sulforhodamine B assay
Assay type: functional
Details: COLO 205, 48 h, read-out: Activity
With `CNC(=O)c1cc(Oc2ccc3nc(NC(=O)Nc4ccc(F)cc4F)sc3c2)ccn1` the growth at 10 µM was 87.1%.

Tested on: not listed separately
Assay: Antiproliferative activity against human HCT15 cells assessed as cell growth at 10^-5 M after 48 hrs by sulforhodamine B assay
Assay type: functional
Details: HCT-15, 48 h, read-out: Activity
With `CNC(=O)c1cc(Oc2ccc3nc(NC(=O)Nc4ccc(F)cc4F)sc3c2)ccn1` the growth at 10 µM was 84%.

Tested on: KM12
Assay: Antiproliferative activity against human KM12 cells assessed as cell growth at 10^-5 M after 48 hrs by sulforhodamine B assay
Assay type: functional
Details: KM12, 48 h, read-out: Activity
Work on `CNC(=O)c1cc(Oc2ccc3nc(NC(=O)Nc4ccc(F)cc4F)sc3c2)ccn1` yielded a growth at 10 µM of 72.6%.

Tested on: not listed separately
Assay: Antiproliferative activity against human SNB75 cells assessed as cell growth at 10^-5 M after 48 hrs by sulforhodamine B assay
Assay type: functional
Details: SNB-75, 48 h, read-out: Activity
`CNC(=O)c1cc(Oc2ccc3nc(NC(=O)Nc4ccc(F)cc4F)sc3c2)ccn1` showed a growth at 10 µM of 19.2%.

Tested on: Malme-3M
Assay: Antiproliferative activity against human MALME-3M cells assessed as cell growth at 10^-5 M after 48 hrs by sulforhodamine B assay
Assay type: functional
Details: read-out: Activity
`CNC(=O)c1cc(Oc2ccc3nc(NC(=O)Nc4ccc(F)cc4F)sc3c2)ccn1` gave a growth at 10 µM of 46.2%.

Tested on: M14
Assay: Antiproliferative activity against human M14 cells assessed as cell growth at 10^-5 M after 48 hrs by sulforhodamine B assay
Assay type: functional
Details: M14, 48 h, read-out: Activity
`CNC(=O)c1cc(Oc2ccc3nc(NC(=O)Nc4ccc(F)cc4F)sc3c2)ccn1` showed a growth at 10 µM of 69.1%.

Tested on: SK-MEL-2
Assay: Antiproliferative activity against human SK-MEL-2 cells assessed as cell growth at 10^-5 M after 48 hrs by sulforhodamine B assay
Assay type: functional
Details: SK-MEL-2, 48 h, read-out: Activity
Compound `CNC(=O)c1cc(Oc2ccc3nc(NC(=O)Nc4ccc(F)cc4F)sc3c2)ccn1` has a growth at 10 µM of 74.7%.

Tested on: SK-MEL-28
Assay: Antiproliferative activity against human SK-MEL-28 cells assessed as cell growth at 10^-5 M after 48 hrs by sulforhodamine B assay
Assay type: functional
Details: SK-MEL-28, 48 h, read-out: Activity
`CNC(=O)c1cc(Oc2ccc3nc(NC(=O)Nc4ccc(F)cc4F)sc3c2)ccn1` showed a growth at 10 µM of 52.1%.

Tested on: not listed separately
Assay: Antiproliferative activity against human UACC257 cells assessed as cell growth at 10^-5 M after 48 hrs by sulforhodamine B assay
Assay type: functional
Details: UACC-257, 48 h, read-out: Activity
Work on `CNC(=O)c1cc(Oc2ccc3nc(NC(=O)Nc4ccc(F)cc4F)sc3c2)ccn1` yielded a growth at 10 µM of 74.3%.

Tested on: not listed separately
Assay: Antiproliferative activity against human IGROV1 cells assessed as cell growth at 10^-5 M after 48 hrs by sulforhodamine B assay
Assay type: functional
Details: IGROV-1, 48 h, read-out: Activity
Work on `CNC(=O)c1cc(Oc2ccc3nc(NC(=O)Nc4ccc(F)cc4F)sc3c2)ccn1` yielded a growth at 10 µM of 84.2%.

Tested on: not listed separately
Assay: Antiproliferative activity against human OVCAR3 cells assessed as cell growth at 10^-5 M after 48 hrs by sulforhodamine B assay
Assay type: functional
Details: OVCAR-3, 48 h, read-out: Activity
Work on `CNC(=O)c1cc(Oc2ccc3nc(NC(=O)Nc4ccc(F)cc4F)sc3c2)ccn1` yielded a growth at 10 µM of 74.7%.

Tested on: not listed separately
Assay: Antiproliferative activity against human OVCAR4 cells assessed as cell growth at 10^-5 M after 48 hrs by sulforhodamine B assay
Assay type: functional
Details: OVCAR-4, 48 h, read-out: Activity
Compound `CNC(=O)c1cc(Oc2ccc3nc(NC(=O)Nc4ccc(F)cc4F)sc3c2)ccn1` has a growth at 10 µM of 34.2%.

Tested on: not listed separately
Assay: Antiproliferative activity against human OVCAR8 cells assessed as cell growth at 10^-5 M after 48 hrs by sulforhodamine B assay
Assay type: functional
Details: OVCAR-8, 48 h, read-out: Activity
In the case of `CNC(=O)c1cc(Oc2ccc3nc(NC(=O)Nc4ccc(F)cc4F)sc3c2)ccn1`, the growth at 10 µM is reported as 45.1%.

Tested on: not listed separately
Assay: Antiproliferative activity against human SKOV3 cells assessed as cell growth at 10^-5 M after 48 hrs by sulforhodamine B assay
Assay type: functional
Details: SK-OV-3, 48 h, read-out: Activity
In the case of `CNC(=O)c1cc(Oc2ccc3nc(NC(=O)Nc4ccc(F)cc4F)sc3c2)ccn1`, the growth at 10 µM is reported as 76.3%.

Tested on: 786-0
Assay: Antiproliferative activity against human 786-0 cells assessed as cell growth at 10^-5 M after 48 hrs by sulforhodamine B assay
Assay type: functional
Details: 786-0, 48 h, read-out: Activity
Work on `CNC(=O)c1cc(Oc2ccc3nc(NC(=O)Nc4ccc(F)cc4F)sc3c2)ccn1` yielded a growth at 10 µM of 64%.

Tested on: A498
Assay: Antiproliferative activity against human A498 cells assessed as cell growth at 10^-5 M after 48 hrs by sulforhodamine B assay
Assay type: functional
Details: A498, 48 h, read-out: Activity
For `CNC(=O)c1cc(Oc2ccc3nc(NC(=O)Nc4ccc(F)cc4F)sc3c2)ccn1`, the growth at 10 µM was 10.9%.

Tested on: not listed separately
Assay: Antiproliferative activity against human Caki1 cells assessed as cell growth at 10^-5 M after 48 hrs by sulforhodamine B assay
Assay type: functional
Details: CAKI-1, 48 h, read-out: Activity
With `CNC(=O)c1cc(Oc2ccc3nc(NC(=O)Nc4ccc(F)cc4F)sc3c2)ccn1` the growth at 10 µM was 88.4%.

Tested on: SN12C
Assay: Antiproliferative activity against human SN12C cells assessed as cell growth at 10^-5 M after 48 hrs by sulforhodamine B assay
Assay type: functional
Details: read-out: Activity
In the case of `CNC(=O)c1cc(Oc2ccc3nc(NC(=O)Nc4ccc(F)cc4F)sc3c2)ccn1`, the growth at 10 µM is reported as 69.2%.

Tested on: not listed separately
Assay: Antiproliferative activity against human TK10 cells assessed as cell growth at 10^-5 M after 48 hrs by sulforhodamine B assay
Assay type: functional
Details: TK-10, 48 h, read-out: Activity
Work on `CNC(=O)c1cc(Oc2ccc3nc(NC(=O)Nc4ccc(F)cc4F)sc3c2)ccn1` yielded a growth at 10 µM of 93.5%.

Tested on: not listed separately
Assay: Antiproliferative activity against human UO31 cells assessed as cell growth at 10^-5 M after 48 hrs by sulforhodamine B assay
Assay type: functional
Details: UO-31, 48 h, read-out: Activity
With `CNC(=O)c1cc(Oc2ccc3nc(NC(=O)Nc4ccc(F)cc4F)sc3c2)ccn1` the growth at 10 µM was 91.4%.

Tested on: MCF7
Assay: Antiproliferative activity against human MCF7 cells assessed as cell growth at 10^-5 M after 48 hrs by sulforhodamine B assay
Assay type: functional
Details: MCF7, 48 h, read-out: Activity
With `CNC(=O)c1cc(Oc2ccc3nc(NC(=O)Nc4ccc(F)cc4F)sc3c2)ccn1` the growth at 10 µM was 66.8%.

Tested on: MDA-MB-231
Assay: Antiproliferative activity against human MDA-MB-231 cells assessed as cell growth at 10^-5 M after 48 hrs by sulforhodamine B assay
Assay type: functional
Details: MDA-MB-231, 48 h, read-out: Activity
`CNC(=O)c1cc(Oc2ccc3nc(NC(=O)Nc4ccc(F)cc4F)sc3c2)ccn1` showed a growth at 10 µM of 47.6%.

Tested on: not listed separately
Assay: Antiproliferative activity against human Hs 578T cells assessed as cell growth at 10^-5 M after 48 hrs by sulforhodamine B assay
Assay type: functional
Details: read-out: Activity
In the case of `CNC(=O)c1cc(Oc2ccc3nc(NC(=O)Nc4ccc(F)cc4F)sc3c2)ccn1`, the growth at 10 µM is reported as 44.5%.

Tested on: not listed separately
Assay: Antiproliferative activity against human BT549 cells assessed as cell growth at 10^-5 M after 48 hrs by sulforhodamine B assay
Assay type: functional
Details: BT-549, 48 h, read-out: Activity
`CNC(=O)c1cc(Oc2ccc3nc(NC(=O)Nc4ccc(F)cc4F)sc3c2)ccn1` gave a growth at 10 µM of 100%.

Tested on: T47D
Assay: Antiproliferative activity against human T47D cells assessed as cell growth at 10^-5 M after 48 hrs by sulforhodamine B assay
Assay type: functional
Details: read-out: Activity
`CNC(=O)c1cc(Oc2ccc3nc(NC(=O)Nc4ccc(F)cc4F)sc3c2)ccn1` gave a growth at 10 µM of 56.5%.
